Holding throughout (format): cell-based
Assay [1] has as its target p-EGFR Del19/C797S (H1975-clone #23 cells) (Homo sapiens, UniProt P00533). Kind of assay: Cell p-EGFR inhibition assay, HTRF, H1975-clone#23 (DEL19/C797S) cells. Conditions: 16 h treatment; for Imax (%): maximum percentage of pEGFR inhibition; for IC50: pEGFR inhibition. In a few lines: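 Phospho-EGFR read by overnight HTRF on lysates, normalized to DMSO-treated high control; IC50, Hill slope and Imax fitted. Compounds were applied for 16 h (10 uM top, 5-fold steps, 8 doses) to an H1975 single clone carrying only exogenous Del19/C797S EGFR after sgRNA knockout of endogenous copies.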
(In TR-FRET formats the signal depends on donor and acceptor labels being close together.)

For assay [2], the target named is T1, EGFR-L858R/C797S (H1975-clone #8 cells) (Homo sapiens, UniProt P00533, C797S/L858R).
T1 construct: expressed in transfected cells; host or cells: H1975 (endogenous EGFR knocked out, clone #8)
Description: Cell degradation of EGFR, HTRF assay, H1975-clone#8 (L858R/C797S) cells. Conditions: 16 h treatment; for DC50: EGFR degradation; for Dmax: maximum percentage of degradation.

The target of assay [3] is T2, p-EGFR L858R (BaF3-L858R cells) (Homo sapiens, UniProt P00533, L858R).
T2 construct: host or cells: BaF3
Kind of assay: Cell p-EGFR inhibition assay, HTRF, BaF3-L858R cells. The note with it: 16 h treatment; for Imax (%): maximum percentage of pEGFR inhibition; for IC50: pEGFR inhibition. Put shortly:
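BaF3-L858R cells treated 16 h at 37 °C, 5% CO2 with compound from 10 uM top, 5-fold dilutions, 8 doses, in 0.1% DMSO medium. Lysates read overnight by HTRF p-EGFR antibodies; IC50 fitted to four-parameter curve against DMSO high control.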

The target in assay [4] is T3, EGFR L858R (BaF3-L858R cells) (Homo sapiens, UniProt P00533, L858R).
T3 construct: host or cells: BaF3
Description: Cell degradation of EGFR, HTRF assay, BaF3-L858R cells. The note with it: 16 h treatment; for DC50: EGFR degradation; for Dmax: maximum percentage of degradation. In a few lines: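 EGFR L858R levels measured by HTRF antibody pair in lysed BaF3-L858R cells after 16 h compound exposure (8-point 5-fold series from 10 uM final, 37° C). Degradation is relative to DMSO-only cells; DC50 fitted with Hill equation, Dmax taken as the largest percent loss.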

A word on the IC50: it is the concentration at which inhibition is half-maximal. A low value points to greater potency. One may read the DC50 as the concentration at which degradation of the target reaches its halfway point. A high value points to a less potent degrader. For orientation: Dmax means the greatest extent of degradation seen. Take `COC[C@H]1CN(c2ccc3c(c2)N2CC4CC[C@H](COc5c(c(C)nn5C)-c5cc(cc(C)n5)C(=O)/N=C/2N3)C4)CCN1C1CCN(c2cc(F)c(C3CCC(=O)NC3=O)nc2C)CC1` (stereo partly drawn) [Example 90, 3-(3-fluoro-5-(4-((R)-2-(methoxymethyl)-4-((7^1R,7^3S,E)-1^1,1^3,2^6-trimethyl-3-oxo-5^2,5^3-dihydro-1^1H,5^1H-9-oxa-4-aza-5(2,1)-benzo[d]imidazola-2(2,4)-pyridina-1(4,5)-pyrazola-7(1,3)-cyclopentanacyclononaphane-5^6-yl)piperazin-1-yl)piperidin-1-yl)-6-methylpyridin-2-yl)piperidine-2,6-dione]: in assay [1], the “Imax (%)” value is 101.7% and the IC50 came out at 2.5 nM. Also, in assay [2], it took 2.06 nM to reach half-maximal degradation (DC50) and the Dmax worked out at 87.4%. In addition, in assay [3], the “Imax (%)” value came out at 98.4% and the IC50 is 6.3 nM. Further, in assay [4], it took 3.21 nM to reach half-maximal degradation (DC50) and the Dmax came to 80.6%.

As to `Cc1cc2cc(n1)-c1c(C)nn(C)c1OC[C@H]1CCC(C1)CN1/C(=N/C2=O)Nc2ccc(N3CCN(C4CCN(c5cc(F)c([C@H]6CCC(=O)NC6=O)c(F)c5)CC4)CC3)cc21` [Example 74, (R)-3-(2,6-difluoro-4-(4-(4-((7^1R,7^3S,E)-1^1,1^3,2^6-trimethyl-3-oxo-5^2,5^3-dihydro-1^1H,5^1H-9-oxa-4-aza-5(2,1)-benzo[d]imidazola-2(2,4)-pyridina-1(4,5)-pyrazola-7(1,3)-cyclopentanacyclononaphane-5^6-yl)piperazin-1-yl)piperidin-1-yl)phenyl)piperidine-2,6-dione], in assay [1], the “Imax (%)” value is listed as 101.2% and the IC50 was determined as 1.7 nM. In assay [2], this molecule gave a DC50 of 1 nM and a Dmax of 86.2%. In addition, in assay [3], the “Imax (%)” value came to 93.3% and 3.2 nM corresponded to half-maximal inhibition (IC50). In assay [4], this molecule gave a DC50 of 0.99 nM and a Dmax of 90.4%.

As for `Cc1cc2cc(n1)-c1c(C)nn(C)c1OC[C@H]1CCC(C1)CN1/C(=N/C2=O)Nc2ccc(N3CCC(N(C)C4CCN(c5cc(F)c([C@H]6CCC(=O)NC6=O)c(F)c5)CC4)CC3)cc21` [Example 136, (R)-3-(2,6-difluoro-4-(4-(methyl(1-((7^1R,7^3S,E)-1^1,1^3,2^6-trimethyl-3-oxo-5^2,5^3-dihydro-1^1H,5^1H-9-oxa-4-aza-5(2,1)-benzo[d]imidazola-2(2,4)-pyridina-1(4,5)-pyrazola-7(1,3)-cyclopentanacyclononaphane-5^6-yl)piperidin-4-yl)amino)piperidin-1-yl)phenyl)piperidine-2,6-dione], the “Imax (%)” value in assay [1] is reported as 103.49%; in assay [3] it was 104.73%. The IC50 is 1.44 nM in assay [1] and 8.91 nM in assay [3]. In addition, the DC50 amounted to 0.152 nM in assay [2] and 3.52 nM in assay [4]. Moreover, the Dmax in assay [2] amounted to 76.1%; in assay [4], 81.1%.

Turning to `Cc1cc2cc(n1)-c1cnn(C)c1OC[C@H]1CCC(C1)CN1/C(=N/C2=O)Nc2ccc(N3CCN(C4(CO)CCN(c5ccc(C6CCC(=O)NC6=O)nc5C)CC4)CC3)cc21` (stereo partly drawn) [Example 114, 3-(5-(4-(4-((7^1R,7^3S,E)-1^1,2^6-dimethyl-3-oxo-5^2,5^3-dihydro-1^1H,5^1H-9-oxa-4-aza-5(2,1)-benzo[d]imidazola-2(2,4)-pyridina-1(4,5)-pyrazola-7(1,3)-cyclopentanacyclononaphane-5^6-yl)piperazin-1-yl)-4-(hydroxymethyl)piperidin-1-yl)-6-methylpyridin-2-yl)piperidine-2,6-dione], in assay [1], the “Imax (%)” value is recorded as 100.5% and the IC50 came out at 0.4 nM. Further, in assay [2], half-maximal degradation (DC50) was put at 1.09 nM and the Dmax amounted to 82%. Moreover, in assay [3], the “Imax (%)” value came out at 98.4% and the IC50 was 7.3 nM. In assay [4], this molecule came in with a DC50 of 3.11 nM and a Dmax of 75.7%.

As to `COC[C@H]1CN(c2ccc3c(c2)N2C[C@@H]4CC[C@H](COc5c(c(C)nn5CCO)-c5cc(cc(C)n5)C(=O)/N=C/2N3)C4)CCN1C1CCN(c2cc(F)c([C@H]3CCC(=O)NC3=O)c(F)c2)CC1` [Example 156, (R)-3-(2,6-difluoro-4-(4-((R)-4-((7^1R,7^3S,E)-1^1-(2-hydroxyethyl)-1^3,2^6-dimethyl-3-oxo-5^2,5^3-dihydro-1^1H,5^1H-9-oxa-4-aza-5(2,1)-benzo[d]imidazola-2(2,4)-pyridina-1(4,5)-pyrazola-7(1,3)-cyclopentanacyclononaphane-5^6-yl)-2-(methoxymethyl)piperazin-1-yl)piperidin-1-yl)phenyl)piperidine-2,6-dione], in assay [1], the “Imax (%)” value was 100.92% and the IC50 was 0.789 nM. Moreover, in assay [2], the DC50 was found to be 2.73 nM and the Dmax is 88%. Also, in assay [3], the “Imax (%)” value came out at 95.16% and half-maximal inhibition (IC50) required 4.81 nM. In assay [4], this molecule registered a 50% degradation concentration (DC50) of 2.11 nM and a Dmax of 87.4%.

Take `Cc1cc2cc(n1)-c1c(C)nn(C)c1OC[C@H]1CC[C@H](C1)CN1/C(=N/C2=O)Nc2ccc(N3C[C@H](C)N(C4CCN(c5cc(F)c([C@H]6CCC(=O)NC6=O)c(F)c5)CC4)C[C@@H]3C)cc21` [Example 197, (R)-3-(4-(4-((2S,5S)-2,5-dimethyl-4-((7^1R,7^3S,E)-1^1,1^3,2^6-trimethyl-3-oxo-5^2,5^3-dihydro-1^1H,5^1H-9-oxa-4-aza-5(2,1)-benzo[d]imidazola-2(2,4)-pyridina-1(4,5)-pyrazola-7(1,3)-cyclopentanacyclononaphane-5^6-yl)piperazin-1-yl)piperidin-1-yl)-2,6-difluorophenyl)piperidine-2,6-dione]: in assay [1], the “Imax (%)” value is given as 103.49% and the midpoint of inhibition, the IC50, lay at 3.38 nM. In assay [2], this molecule came in with a half-maximal degradation concentration (DC50) of 7.24 nM and a Dmax of 89.7%. For the same molecule, in assay [3], the “Imax (%)” value turned out to be 101.23% and the IC50 was found to be 9.16 nM. In assay [4], half-maximal degradation (DC50) was put at 8.79 nM and the Dmax came to 74%.

`Cc1cc2cc(n1)-c1c(C)nn(C)c1OC[C@H]1CC[C@H](C1)CN1/C(=N/C2=O)Nc2ccc(N3CCN(CC4CCN(c5cc(F)c([C@H]6CCC(=O)NC6=O)c(F)c5)CC4)CC3)cc21` [Example 182, (R)-3-(2,6-difluoro-4-(4-((4-((7^1R,7^3S,E)-1^1,1^3,2^6-trimethyl-3-oxo-5^2,5^3-dihydro-1^1H,5^1H-9-oxa-4-aza-5(2,1)-benzo[d]imidazola-2(2,4)-pyridina-1(4,5)-pyrazola-7(1,3)-cyclopentanacyclononaphane-5^6-yl)piperazin-1-yl)methyl)piperidin-1-yl)phenyl)piperidine-2,6-dione]: the “Imax (%)” value in assay [1] is recorded as 99.73%; in assay [3] it was 100.38%. In addition, the results for the IC50 in assay [1] and in assay [3] were 2.38 nM and 2.21 nM, respectively. Moreover, the DC50 in assay [2] was found to be 1.39 nM; in assay [4], 21.8 nM. For the same molecule, the figures for the Dmax in assay [2] and in assay [4] were 79.8% and 89.2%, respectively.

`Cc1cc2cc(n1)-c1cnn(C)c1OC[C@H]1CCC(C1)CN1/C(=N/C2=O)Nc2ccc(N3CCN(C4CCN(c5ccc(OC6CCC(=O)NC6=O)cc5F)CC4)CC3)cc21` (stereo partly drawn) [Example 88, 3-(4-(4-(4-((7^1R,7^3S,E)-1^1,2^6-dimethyl-3-oxo-5^2,5^3-dihydro-1^1H,5^1H-9-oxa-4-aza-5(2,1)-benzo[d]imidazola-2(2,4)-pyridina-1(4,5)-pyrazola-7(1,3)-cyclopentanacyclononaphane-5^6-yl)piperazin-1-yl)piperidin-1-yl)-3-fluorophenoxy)piperidine-2,6-dione]: in assay [1], the “Imax (%)” value came to 100.7% and the IC50 came to 3 nM. In assay [2], it took 1.63 nM to reach half-maximal degradation (DC50) and the Dmax is 82.9%. In assay [3], the “Imax (%)” value is given as 108.3% and half-maximal inhibition (IC50) required 6.1 nM. Also, in assay [4], the DC50 came out at 16.4 nM and the Dmax is 95.8%.

For the molecule `CCc1nn(C)c2c1-c1cc(cc(C)n1)C(=O)/N=C1\Nc3ccc(N4CCN(C5CCN(c6cc(F)c([C@H]7CCC(=O)NC7=O)c(F)c6)CC5)[C@@H](COC)C4)cc3N1C[C@@H]1CC[C@H](CO2)C1` [Example 175, (R)-3-(4-(4-((R)-4-((7^1R,7^3S,E)-1^3-ethyl-1^1,2^6-dimethyl-3-oxo-5^2,5^3-dihydro-1^1H,5^1H-9-oxa-4-aza-5(2,1)-benzo[d]imidazola-2(2,4)-pyridina-1(4,5)-pyrazola-7(1,3)-cyclopentanacyclononaphane-5^6-yl)-2-(methoxymethyl)piperazin-1-yl)piperidin-1-yl)-2,6-difluorophenyl)piperidine-2,6-dione], in assay [1], the “Imax (%)” value came to 100.72% and the IC50 was 1.28 nM. In assay [2], this molecule gave a 50% degradation concentration (DC50) of 7.25 nM and a Dmax of 83.9%. Besides, in assay [3], the “Imax (%)” value is reported as 98.51% and the 50% inhibitory concentration (IC50) turned out to be 2.83 nM. In assay [4], this molecule returned a DC50 of 4.07 nM and a Dmax of 88.7%.
